In the NIST ThermoML archive (doi:10.1021/je900550v):
Numbers after ± are expanded uncertainties.

Settings: 101.33 kPa, Liquid; for speed of sound: Sing-around technique in a fixed-path interferometer; for mass density: Vibrating tube method

CC(=O)[O-].C[NH2+]CCO [N-methyl-2-hydroxyethylammonium acetate]
Settings | mass density [kg/m3] | speed of sound [m/s] | viscosity [mPa·s]
308.15 K | 1094.83 ± 2.2 | 1769.3 ± 2.2 | –
308.4 K | 1094.68 ± 2.2 | 1768.7 ± 2.2 | –
308.65 K | 1094.52 ± 2.2 | 1768 ± 2.2 | –
308.9 K | 1094.37 ± 2.2 | 1767.4 ± 2.2 | –
309.15 K | 1094.22 ± 2.2 | 1766.8 ± 2.2 | –
309.4 K | 1094.07 ± 2.2 | 1766.1 ± 2.2 | –
309.65 K | 1093.92 ± 2.2 | 1765.5 ± 2.2 | –
309.9 K | 1093.77 ± 2.2 | 1764.8 ± 2.2 | –
310.15 K | 1093.62 ± 2.2 | 1764.2 ± 2.2 | –
310.4 K | 1093.47 ± 2.2 | 1763.6 ± 2.2 | –
310.65 K | 1093.31 ± 2.2 | 1762.9 ± 2.2 | –
310.91 K | 1093.16 ± 2.2 | 1762.3 ± 2.2 | –
311.16 K | 1093.01 ± 2.2 | 1761.7 ± 2.2 | –
311.4 K | 1092.85 ± 2.2 | 1761 ± 2.2 | –
311.65 K | 1092.7 ± 2.2 | 1760.4 ± 2.2 | –
311.91 K | 1092.55 ± 2.2 | 1759.7 ± 2.2 | –
312.16 K | 1092.4 ± 2.2 | 1759.1 ± 2.2 | –
312.41 K | 1092.24 ± 2.2 | 1758.5 ± 2.2 | –
312.66 K | 1092.09 ± 2.2 | 1757.8 ± 2.2 | –
312.91 K | 1091.94 ± 2.2 | 1757.2 ± 2.2 | –
313.15 K | – | – | 46.16 ± 1.3
313.16 K | 1091.78 ± 2.2 | 1756.5 ± 2.2 | –
313.4 K | 1091.63 ± 2.2 | 1755.9 ± 2.2 | –
313.66 K | 1091.48 ± 2.2 | 1755.2 ± 2.2 | –
313.9 K | 1091.32 ± 2.2 | 1754.6 ± 2.2 | –
314.15 K | 1091.17 ± 2.2 | 1753.9 ± 2.2 | –
314.4 K | 1091.02 ± 2.2 | 1753.3 ± 2.2 | –
314.65 K | 1090.87 ± 2.2 | 1752.6 ± 2.2 | –
314.9 K | 1090.71 ± 2.2 | 1752 ± 2.2 | –
315.15 K | 1090.56 ± 2.2 | 1751.3 ± 2.2 | –
315.41 K | 1090.41 ± 2.2 | 1750.7 ± 2.2 | –
315.65 K | 1090.26 ± 2.2 | 1750 ± 2.2 | –
315.91 K | 1090.1 ± 2.2 | 1749.4 ± 2.2 | –
316.16 K | 1089.95 ± 2.2 | 1748.7 ± 2.2 | –
316.41 K | 1089.79 ± 2.2 | 1748.1 ± 2.2 | –
316.66 K | 1089.64 ± 2.2 | 1747.4 ± 2.2 | –
316.91 K | 1089.49 ± 2.2 | 1746.8 ± 2.2 | –
317.16 K | 1089.33 ± 2.2 | 1746.1 ± 2.2 | –
317.4 K | 1089.18 ± 2.2 | 1745.5 ± 2.2 | –
317.66 K | 1089.02 ± 2.2 | 1744.8 ± 2.2 | –
317.91 K | 1088.87 ± 2.2 | 1744.2 ± 2.2 | –
318.15 K | – | – | 37.28 ± 1.1
318.16 K | 1088.72 ± 2.2 | 1743.5 ± 2.2 | –
318.41 K | 1088.56 ± 2.2 | 1742.8 ± 2.2 | –
318.65 K | 1088.41 ± 2.2 | 1742.2 ± 2.2 | –
318.9 K | 1088.26 ± 2.2 | 1741.5 ± 2.2 | –
319.16 K | 1088.1 ± 2.2 | 1740.9 ± 2.2 | –
319.41 K | 1087.94 ± 2.2 | 1740.2 ± 2.2 | –
319.65 K | 1087.79 ± 2.2 | 1739.6 ± 2.2 | –
319.91 K | 1087.64 ± 2.2 | 1738.9 ± 2.2 | –
320.16 K | 1087.48 ± 2.2 | 1738.2 ± 2.2 | –
320.41 K | 1087.33 ± 2.2 | 1737.6 ± 2.2 | –
320.65 K | 1087.17 ± 2.2 | 1736.9 ± 2.2 | –
320.91 K | 1087.02 ± 2.2 | 1736.3 ± 2.2 | –
321.15 K | 1086.86 ± 2.2 | 1735.6 ± 2.2 | –
321.41 K | 1086.71 ± 2.2 | 1735 ± 2.2 | –
321.66 K | 1086.55 ± 2.2 | 1734.3 ± 2.2 | –
321.9 K | 1086.4 ± 2.2 | 1733.6 ± 2.2 | –
322.15 K | 1086.24 ± 2.2 | 1733 ± 2.2 | –
322.41 K | 1086.08 ± 2.2 | 1732.3 ± 2.2 | –
322.65 K | 1085.93 ± 2.2 | 1731.7 ± 2.2 | –
322.91 K | 1085.77 ± 2.2 | 1731 ± 2.2 | –
323.15 K | – | – | 29.06 ± 0.85
323.16 K | 1085.62 ± 2.2 | 1730.3 ± 2.2 | –
323.41 K | 1085.46 ± 2.2 | 1729.7 ± 2.2 | –
323.65 K | 1085.31 ± 2.2 | 1729 ± 2.2 | –
323.91 K | 1085.15 ± 2.2 | 1728.3 ± 2.2 | –
324.16 K | 1085 ± 2.2 | 1727.7 ± 2.2 | –
324.41 K | 1084.84 ± 2.2 | 1727 ± 2.2 | –
324.65 K | 1084.68 ± 2.2 | 1726.4 ± 2.2 | –
324.9 K | 1084.53 ± 2.2 | 1725.7 ± 2.2 | –
325.16 K | 1084.37 ± 2.2 | 1725 ± 2.2 | –
325.4 K | 1084.22 ± 2.2 | 1724.4 ± 2.2 | –
325.66 K | 1084.06 ± 2.2 | 1723.7 ± 2.2 | –
325.9 K | 1083.9 ± 2.2 | 1723.1 ± 2.2 | –
326.16 K | 1083.75 ± 2.2 | 1722.4 ± 2.2 | –
326.41 K | 1083.59 ± 2.2 | 1721.7 ± 2.2 | –
326.66 K | 1083.43 ± 2.2 | 1721.1 ± 2.2 | –
326.9 K | 1083.28 ± 2.2 | 1720.4 ± 2.2 | –
327.16 K | 1083.12 ± 2.2 | 1719.7 ± 2.2 | –
327.4 K | 1082.97 ± 2.2 | 1719.1 ± 2.2 | –
327.66 K | 1082.81 ± 2.2 | 1718.4 ± 2.2 | –
327.9 K | 1082.65 ± 2.2 | 1717.7 ± 2.2 | –
328.15 K | 1082.49 ± 2.2 | 1717.1 ± 2.2 | –
328.41 K | 1082.34 ± 2.2 | 1716.4 ± 2.2 | –
328.66 K | 1082.18 ± 2.2 | 1715.8 ± 2.2 | –
328.9 K | 1082.03 ± 2.2 | 1715.1 ± 2.2 | –
329.16 K | 1081.87 ± 2.2 | 1714.4 ± 2.2 | –
329.4 K | 1081.71 ± 2.2 | 1713.8 ± 2.2 | –
329.65 K | 1081.55 ± 2.2 | 1713.1 ± 2.2 | –
329.9 K | 1081.4 ± 2.2 | 1712.5 ± 2.2 | –
330.16 K | 1081.24 ± 2.2 | 1711.8 ± 2.2 | –
330.41 K | 1081.08 ± 2.2 | 1711.1 ± 2.2 | –
330.66 K | 1080.92 ± 2.2 | 1710.5 ± 2.2 | –
330.91 K | 1080.77 ± 2.2 | 1709.8 ± 2.2 | –
331.16 K | 1080.61 ± 2.2 | 1709.1 ± 2.2 | –
331.41 K | 1080.45 ± 2.2 | 1708.5 ± 2.2 | –
331.66 K | 1080.29 ± 2.2 | 1707.8 ± 2.2 | –
331.91 K | 1080.13 ± 2.2 | 1707.1 ± 2.2 | –
332.16 K | 1079.97 ± 2.2 | 1706.5 ± 2.2 | –
332.41 K | 1079.82 ± 2.2 | 1705.8 ± 2.2 | –
332.66 K | 1079.66 ± 2.2 | 1705.1 ± 2.2 | –
332.91 K | 1079.5 ± 2.2 | 1704.5 ± 2.2 | –
333.16 K | 1079.34 ± 2.2 | 1703.8 ± 2.2 | –
333.41 K | 1079.19 ± 2.2 | 1703.1 ± 2.2 | –
333.66 K | 1079.03 ± 2.2 | 1702.5 ± 2.2 | –
333.91 K | 1078.87 ± 2.2 | 1701.8 ± 2.2 | –
334.16 K | 1078.71 ± 2.2 | 1701.2 ± 2.2 | –
334.41 K | 1078.55 ± 2.2 | 1700.5 ± 2.2 | –
334.66 K | 1078.39 ± 2.2 | 1699.8 ± 2.2 | –
334.91 K | 1078.23 ± 2.2 | 1699.2 ± 2.2 | –
335.16 K | 1078.08 ± 2.2 | 1698.5 ± 2.2 | –
335.41 K | 1077.92 ± 2.2 | 1697.9 ± 2.2 | –
335.66 K | 1077.76 ± 2.2 | 1697.2 ± 2.2 | –
335.91 K | 1077.6 ± 2.2 | 1696.6 ± 2.2 | –
336.16 K | 1077.44 ± 2.2 | 1696 ± 2.2 | –
336.41 K | 1077.28 ± 2.2 | 1695.3 ± 2.2 | –
336.66 K | 1077.12 ± 2.2 | 1694.7 ± 2.2 | –
336.9 K | 1076.96 ± 2.2 | 1694 ± 2.2 | –
337.16 K | 1076.8 ± 2.2 | 1693.4 ± 2.2 | –
337.4 K | 1076.63 ± 2.2 | 1692.8 ± 2.2 | –
337.66 K | 1076.47 ± 2.2 | 1692.2 ± 2.2 | –
337.9 K | 1076.32 ± 2.2 | 1691.7 ± 2.2 | –
338.15 K | 1076.16 ± 2.2 | 1691.3 ± 2.2 | –
